Assays:
[1] = Absorbance spectra of the dyes in DCM (UV-Visible/NIR spectrophotometer); format: physicochemical; conditions: dichloromethane; for absorption (DCM) λmax: in example paragraphs the longest-wavelength absorbance peak; for absorption (DCM) ε: at absorption λmax
Excerpt: (§1) The absorbance spectra in FIG. 2 and FIG. 5 were obtained in DCM on a JASCO V-770 UV-Visible/[…] spectrophotometer with a 2000 nm/min or 4000 nm/min scan rate. Plotted are the baseline corrected and normalized data. The emission spectra in FIG. 2 were taken in DCM on either a Horiba Instruments PTI QuantaMaster Series fluorometer (6), a Fluoromax-3 spectrofluorometer (1, 3-5), or home-built InGaAs array detector (Princeton Instruments). For 6 the following parameters were used: ex. 610 nm, emission collected from 620-900 nm, slits 5 nm, step size 1 nm, integration time 1 s. Plotted is the DCM corrected, baseline corrected, normalized data. For 1, and 3-5, the following parameters were used: slits 5 nm, step size 1 nm, integration time, 0.25 s. Excitation values and emission collection were as follows: 1 (ex. 460, collection 470-800 nm), 5 (ex. 675 nm, collection 685-950 nm), 4 (ex. 840 nm, emission 850-1100 nm), 3 (ex. 730 nm, emission 950-1400). Plotted are the baseline corrected, normalized data. The emission spectra in FIG. 5 were taken in dichloromethane on a Horiba Instruments QuantaMaster Series fluorometer with excitation slits: 15 nm, emission slits: 30 nm, step size: 1 nm, integration time: 0.1 s and excitation wavelengths as indicated.

[2] = Emission spectra of the dyes in DCM; format: physicochemical; conditions: Example 4 dyes, dichloromethane, excitation 806-900 nm per dye
Excerpt: as §1

Row | SMILES | absorption (DCM) λmax [1] | Emission (CH2Cl2) [2] | absorption (DCM) ε [1]
1 | ClC1=C(/C=C/c2cc(-c3ccccc3)[o+]c3ccc4ccccc4c23)CCC/C1=C\C=C1/C=C(c2ccccc2)Oc2ccc3ccccc3c21.F[B-](F)(F)F [1-((E)-2-((E)-2-chloro-3-((E)-2-(3-phenyl-1H-benzo[f]chromen-1-ylidene)ethylidene)cyclohex-1-en-1-yl)vinyl)-3-phenylbenzo[f]chromen-4-ium tetrafluoroborate] | 1014 nm | 1055 nm | –
2 | CCN(CC)c1ccc2c(c1)OC(c1ccccc1)=C/C2=C\C=C1/CCCC(/C=C/c2cc(-c3ccccc3)[o+]c3cc(N(CC)CC)ccc23)=C1Cl.F[B-](F)(F)F [4-((E)-2-((E)-2-chloro-3-(2-((E)-7-(diethylamino)-2-phenyl-4H-chromen-4-ylidene)ethylidene)cyclohex-1-en-1-yl)vinyl)-7-(diethylamino)-2-phenylchromenylium tetrafluoroborate] | 1034 nm | 1062 nm | 1.8±0.2×10^5 M^−1cm^−1
3 | CN(C)c1ccc2c(c1)OC(c1ccccc1)=C/C2=C\C=C1/CCCC(/C=C/c2cc(-c3ccccc3)[o+]c3cc(N(C)C)ccc23)=C1Cl.F[B-](F)(F)F [4-((E)-2-((E)-2-chloro-3-(2-((E)-7-(dimethylamino)-2-phenyl-4H-chromen-4-ylidene)ethylidene)cyclohex-1-en-1-yl)vinyl)-7-(dimethylamino)-2-phenylchromenylium tetrafluoroborate] | 1026 nm | 1054 nm | –
4 | ClC1=C(/C=C/c2cc(-c3ccccc3)[o+]c3cc(N(c4ccccc4)c4ccccc4)ccc23)CCC/C1=C\C=C1/C=C(c2ccccc2)Oc2cc(N(c3ccccc3)c3ccccc3)ccc21.F[B-](F)(F)F [4-((E)-2-((E)-2-chloro-3-(2-((E)-7-(diphenylamino)-2-phenyl-4H-chromen-4-ylidene)ethylidene)cyclohex-1-en-1-yl)vinyl)-7-(diphenylamino)-2-phenylchromenylium tetrafluoroborate] | 1047 nm | 1079 nm | –
5 | ClC1=C(/C=C/c2cc(-c3ccccc3)[o+]c3c2ccc2ccccc23)CCC/C1=C\C=C1/C=C(c2ccccc2)Oc2c1ccc1ccccc21.F[B-](F)(F)F [4-((E)-2-((E)-2-chloro-3-((E)-2-(2-phenyl-4H-benzochromen-4-ylidene)ethylidene)cyclohex-1-en-1-yl)vinyl)-2-phenylbenzo chromen-1-ium tetrafluoroborate] | 998 nm | 1024 nm | –
6 | ClC1=C(/C=C/c2cc(-c3ccccc3)[o+]c3cc(N4CCC4)ccc23)CCC/C1=C\C=C1/C=C(c2ccccc2)Oc2cc(N3CCC3)ccc21.F[B-](F)(F)F [7-(azetidin-1-yl)-4-((E)-2-((E)-3-(2-((E)-7-(azetidin-1-yl)-2-phenyl-4H-chromen-4-ylidene)ethylidene)-2-chlorocyclohex-1-en-1-yl)vinyl)-2-phenylchromenylium tetrafluoroborate] | 1029 nm | 1059 nm | 2.07±0.01×10^5 M^−1cm^−1
7 | ClC1=C(/C=C/c2cc(-c3ccccc3)[o+]c3c4c5c(cc23)CCCN5CCC4)CCC/C1=C\C=C1/C=C(c2ccccc2)Oc2c1cc1c3c2CCCN3CCC1.F[B-](F)(F)F [9-((E)-2-((E)-2-chloro-3-((E)-2-(11-phenyl-2,3,6,7-tetrahydro-1H,5H,9H-pyrano[2,3-f]pyrido[3,2,1-ij]quinolin-9-ylidene)ethylidene)cyclohex-1-en-1-yl)vinyl)-11-phenyl-2,3,6,7-tetrahydro-1H,5H-pyrano[2,3-f]pyrido[3,2,1-ij]quinolin-12-ium tetrafluoroborate] | 1061 nm | 1089 nm | 2.38±0.07×10^5 M^−1cm^−1

From patent US11292778B2, “Heterocyclyl polymethine IR chromophores” (The Regents of the University of California, priority 2017, dated 2022)
